Experimental data from publication PMC12372887, “Mechanism and cellular actions of the potent AMPK inhibitor BAY-3827” (Science Advances, 2025).

Tests used:
Assay in all cases: Kinase panel (140 human kinases)
Type in all cases: biochemical
NEK6 = NEK6 (Homo sapiens, UniProt Q9HC98)
Protocol: (§1) BAY-3827 and BAY-974 were assayed against a 140-human kinase panel at 0.1 μM and at 1 μM (BAY-3827) concentration in a [γ-^33P] ATP–based radioactive filter binding assay ([31], [65]) setup in duplicates with reported mean remaining kinase percentage activity alongside SD (table S1). Assays were performed at either 5, 20, or 50 μM ATP to be at or below the Michaelis constant for ATP for each enzyme and conducted by the services offered by the International Centre for Kinase Profiling at MRC Protein Phosphorylation and Ubiquitylation Unit, University of Dundee (https://www.kinase-screen.mrc.ac.uk/services/premier-screen).

Src = Src (Homo sapiens, UniProt P12931)
Protocol: as §1

IR = IR (Homo sapiens, UniProt P06213)
Chain of IR (P06213 28-1382): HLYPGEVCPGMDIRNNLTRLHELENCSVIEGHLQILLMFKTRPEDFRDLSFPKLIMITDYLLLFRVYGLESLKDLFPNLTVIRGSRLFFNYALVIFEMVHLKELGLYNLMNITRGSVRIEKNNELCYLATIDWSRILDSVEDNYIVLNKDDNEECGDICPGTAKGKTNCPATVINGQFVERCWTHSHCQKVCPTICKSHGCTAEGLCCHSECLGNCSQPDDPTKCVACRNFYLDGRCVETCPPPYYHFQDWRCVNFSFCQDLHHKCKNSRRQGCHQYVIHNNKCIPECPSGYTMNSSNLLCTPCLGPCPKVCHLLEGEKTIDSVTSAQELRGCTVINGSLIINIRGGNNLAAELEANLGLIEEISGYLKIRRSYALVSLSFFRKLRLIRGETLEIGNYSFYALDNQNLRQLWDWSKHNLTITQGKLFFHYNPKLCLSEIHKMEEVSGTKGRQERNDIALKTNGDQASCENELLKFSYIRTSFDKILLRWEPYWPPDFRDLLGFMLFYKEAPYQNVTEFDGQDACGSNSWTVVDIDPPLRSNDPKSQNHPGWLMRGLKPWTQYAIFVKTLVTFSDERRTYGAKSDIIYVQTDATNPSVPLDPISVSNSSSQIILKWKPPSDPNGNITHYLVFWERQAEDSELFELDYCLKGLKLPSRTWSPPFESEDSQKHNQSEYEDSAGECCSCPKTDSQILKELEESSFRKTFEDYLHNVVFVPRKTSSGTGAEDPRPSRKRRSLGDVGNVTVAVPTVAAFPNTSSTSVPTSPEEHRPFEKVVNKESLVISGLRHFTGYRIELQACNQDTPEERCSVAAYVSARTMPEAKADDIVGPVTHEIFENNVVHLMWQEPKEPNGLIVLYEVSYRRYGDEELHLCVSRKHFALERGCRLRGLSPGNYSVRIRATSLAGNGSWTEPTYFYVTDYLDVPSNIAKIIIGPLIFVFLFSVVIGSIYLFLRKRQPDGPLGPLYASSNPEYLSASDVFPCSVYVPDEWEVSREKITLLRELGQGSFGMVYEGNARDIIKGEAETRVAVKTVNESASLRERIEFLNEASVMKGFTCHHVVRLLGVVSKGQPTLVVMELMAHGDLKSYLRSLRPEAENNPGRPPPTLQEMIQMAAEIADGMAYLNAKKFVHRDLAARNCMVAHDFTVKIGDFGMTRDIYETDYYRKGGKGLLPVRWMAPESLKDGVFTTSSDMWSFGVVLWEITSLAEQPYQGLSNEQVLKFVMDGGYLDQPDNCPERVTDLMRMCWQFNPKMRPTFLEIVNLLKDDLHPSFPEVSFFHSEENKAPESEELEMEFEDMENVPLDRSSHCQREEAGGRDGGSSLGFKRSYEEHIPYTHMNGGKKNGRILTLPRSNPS
Protocol: as §1

CHK2 = CHK2 (Homo sapiens, UniProt O96017)
Chain of CHK2 (O96017 whole entry): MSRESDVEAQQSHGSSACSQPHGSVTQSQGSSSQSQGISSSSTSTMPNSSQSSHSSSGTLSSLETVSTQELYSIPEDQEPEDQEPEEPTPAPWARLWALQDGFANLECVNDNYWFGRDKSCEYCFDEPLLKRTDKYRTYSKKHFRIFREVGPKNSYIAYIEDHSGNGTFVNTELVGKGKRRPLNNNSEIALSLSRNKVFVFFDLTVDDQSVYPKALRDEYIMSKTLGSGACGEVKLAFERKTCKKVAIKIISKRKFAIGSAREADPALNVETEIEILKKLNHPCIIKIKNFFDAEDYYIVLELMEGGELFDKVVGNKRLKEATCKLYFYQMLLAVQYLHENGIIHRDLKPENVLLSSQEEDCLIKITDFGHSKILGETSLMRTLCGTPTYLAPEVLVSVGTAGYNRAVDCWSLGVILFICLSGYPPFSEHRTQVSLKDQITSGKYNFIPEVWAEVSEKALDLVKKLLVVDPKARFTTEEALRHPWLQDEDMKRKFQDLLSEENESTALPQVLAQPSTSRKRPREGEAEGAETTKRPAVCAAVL
Protocol: as §1

NUAK1 = target: T1, NUAK1 (Homo sapiens, UniProt O60285)
T1 sequence (O60285 1-661): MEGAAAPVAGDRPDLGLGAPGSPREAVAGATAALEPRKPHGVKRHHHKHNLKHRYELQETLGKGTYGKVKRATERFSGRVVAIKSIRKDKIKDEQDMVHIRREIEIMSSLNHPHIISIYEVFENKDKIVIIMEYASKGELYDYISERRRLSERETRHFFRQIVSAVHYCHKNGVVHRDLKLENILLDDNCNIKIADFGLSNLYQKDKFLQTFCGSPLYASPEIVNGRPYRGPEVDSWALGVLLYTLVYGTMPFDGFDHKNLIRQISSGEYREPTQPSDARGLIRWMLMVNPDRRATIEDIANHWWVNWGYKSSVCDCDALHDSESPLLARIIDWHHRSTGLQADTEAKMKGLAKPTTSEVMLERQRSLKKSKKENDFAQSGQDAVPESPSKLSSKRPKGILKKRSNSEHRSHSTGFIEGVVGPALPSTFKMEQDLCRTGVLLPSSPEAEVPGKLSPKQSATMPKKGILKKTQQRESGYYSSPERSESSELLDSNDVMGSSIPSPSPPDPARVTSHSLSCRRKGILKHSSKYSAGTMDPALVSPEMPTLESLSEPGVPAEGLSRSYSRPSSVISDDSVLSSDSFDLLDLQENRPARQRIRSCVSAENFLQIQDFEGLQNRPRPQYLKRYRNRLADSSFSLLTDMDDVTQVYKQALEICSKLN
Protocol: as §1

MLK1 = MLK1 (Homo sapiens, UniProt P80192)
Protocol: as §1

SIK2 = SIK2 (Homo sapiens, UniProt Q9H0K1)
Protocol: as §1

EPH-B2 = EPH-B2 (Homo sapiens, UniProt P29323)
Protocol: as §1

TAK1 = target: T2, TAK1 (Homo sapiens, UniProt O43318)
T2 sequence (O43318 1-303 limits assumed): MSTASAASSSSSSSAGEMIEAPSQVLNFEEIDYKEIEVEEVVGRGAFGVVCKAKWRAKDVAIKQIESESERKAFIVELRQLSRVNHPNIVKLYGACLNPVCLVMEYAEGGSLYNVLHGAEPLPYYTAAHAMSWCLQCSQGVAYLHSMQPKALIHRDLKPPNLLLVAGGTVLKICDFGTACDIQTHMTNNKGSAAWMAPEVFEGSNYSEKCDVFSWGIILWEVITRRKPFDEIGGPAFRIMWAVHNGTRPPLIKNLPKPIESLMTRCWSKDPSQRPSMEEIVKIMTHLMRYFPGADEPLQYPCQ
Protocol: as §1

TTBK1 = TTBK1 (Homo sapiens, UniProt Q5TCY1)
Chain of TTBK1 (Q5TCY1 whole entry): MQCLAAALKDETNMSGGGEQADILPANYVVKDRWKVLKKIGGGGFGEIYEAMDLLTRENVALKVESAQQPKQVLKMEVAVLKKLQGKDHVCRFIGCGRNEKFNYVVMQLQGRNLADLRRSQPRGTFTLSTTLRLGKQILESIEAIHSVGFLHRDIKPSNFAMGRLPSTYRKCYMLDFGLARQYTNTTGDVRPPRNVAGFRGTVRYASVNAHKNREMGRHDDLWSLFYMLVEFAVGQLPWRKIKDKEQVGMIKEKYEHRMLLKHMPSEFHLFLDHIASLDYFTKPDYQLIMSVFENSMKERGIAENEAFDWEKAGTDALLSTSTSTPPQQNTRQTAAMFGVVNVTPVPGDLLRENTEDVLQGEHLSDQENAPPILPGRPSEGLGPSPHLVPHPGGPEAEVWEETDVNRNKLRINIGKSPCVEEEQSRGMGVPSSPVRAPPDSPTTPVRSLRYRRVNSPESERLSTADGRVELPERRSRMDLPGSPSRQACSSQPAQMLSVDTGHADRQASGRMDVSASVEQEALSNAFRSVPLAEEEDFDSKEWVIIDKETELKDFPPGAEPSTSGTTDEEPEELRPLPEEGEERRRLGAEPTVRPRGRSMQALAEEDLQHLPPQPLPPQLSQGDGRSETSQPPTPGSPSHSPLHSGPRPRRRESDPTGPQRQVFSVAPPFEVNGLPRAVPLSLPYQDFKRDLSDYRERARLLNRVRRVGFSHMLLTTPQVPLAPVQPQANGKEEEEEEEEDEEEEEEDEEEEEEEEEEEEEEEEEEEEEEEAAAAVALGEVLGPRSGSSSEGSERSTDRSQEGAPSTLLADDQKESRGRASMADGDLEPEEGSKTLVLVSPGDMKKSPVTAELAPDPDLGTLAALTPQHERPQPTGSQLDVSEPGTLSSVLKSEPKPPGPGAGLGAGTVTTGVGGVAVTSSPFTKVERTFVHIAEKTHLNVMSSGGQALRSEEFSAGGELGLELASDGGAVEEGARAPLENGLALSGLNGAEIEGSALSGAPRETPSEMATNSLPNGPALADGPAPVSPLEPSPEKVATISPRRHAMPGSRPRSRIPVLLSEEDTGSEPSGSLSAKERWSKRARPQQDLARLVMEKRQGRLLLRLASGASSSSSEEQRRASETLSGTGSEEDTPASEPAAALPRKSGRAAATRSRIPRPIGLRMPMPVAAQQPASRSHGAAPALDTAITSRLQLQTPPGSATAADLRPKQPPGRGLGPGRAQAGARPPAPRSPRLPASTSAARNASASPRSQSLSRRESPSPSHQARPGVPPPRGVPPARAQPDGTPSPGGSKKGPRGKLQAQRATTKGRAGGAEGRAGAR
Protocol: as §1

PINK = PINK (Tribolium castaneum, UniProt D6WMX4)
Protocol: as §1

HIPK2 = HIPK2 (Homo sapiens, UniProt Q9H2X6)
Protocol: as §1

PDGFRA = PDGFRA (Homo sapiens, UniProt P16234)
Protocol: as §1

p38g MAPK = p38g MAPK (Homo sapiens, UniProt P53778)
Protocol: as §1

DYRK2 = DYRK2 (Homo sapiens, UniProt Q92630)
Chain of DYRK2 (Q92630 whole entry): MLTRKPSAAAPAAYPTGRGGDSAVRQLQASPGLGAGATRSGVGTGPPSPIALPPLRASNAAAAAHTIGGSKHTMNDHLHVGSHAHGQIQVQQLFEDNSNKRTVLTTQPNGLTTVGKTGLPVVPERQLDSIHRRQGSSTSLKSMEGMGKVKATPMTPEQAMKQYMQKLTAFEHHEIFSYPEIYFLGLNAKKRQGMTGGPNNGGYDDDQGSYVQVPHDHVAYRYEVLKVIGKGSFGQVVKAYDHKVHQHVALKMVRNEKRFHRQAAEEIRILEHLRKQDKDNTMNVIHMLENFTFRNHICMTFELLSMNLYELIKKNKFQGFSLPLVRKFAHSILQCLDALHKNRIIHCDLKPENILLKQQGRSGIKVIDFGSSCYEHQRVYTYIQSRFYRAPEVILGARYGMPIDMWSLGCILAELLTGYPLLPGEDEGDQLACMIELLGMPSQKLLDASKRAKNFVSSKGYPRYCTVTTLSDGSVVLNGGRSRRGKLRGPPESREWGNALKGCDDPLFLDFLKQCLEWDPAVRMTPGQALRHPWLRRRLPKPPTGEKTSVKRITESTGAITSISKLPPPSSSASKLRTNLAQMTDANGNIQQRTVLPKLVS
Protocol: as §1

MST2 = MST2 (Homo sapiens, UniProt Q13188)
Chain of MST2 (Q13188 whole entry): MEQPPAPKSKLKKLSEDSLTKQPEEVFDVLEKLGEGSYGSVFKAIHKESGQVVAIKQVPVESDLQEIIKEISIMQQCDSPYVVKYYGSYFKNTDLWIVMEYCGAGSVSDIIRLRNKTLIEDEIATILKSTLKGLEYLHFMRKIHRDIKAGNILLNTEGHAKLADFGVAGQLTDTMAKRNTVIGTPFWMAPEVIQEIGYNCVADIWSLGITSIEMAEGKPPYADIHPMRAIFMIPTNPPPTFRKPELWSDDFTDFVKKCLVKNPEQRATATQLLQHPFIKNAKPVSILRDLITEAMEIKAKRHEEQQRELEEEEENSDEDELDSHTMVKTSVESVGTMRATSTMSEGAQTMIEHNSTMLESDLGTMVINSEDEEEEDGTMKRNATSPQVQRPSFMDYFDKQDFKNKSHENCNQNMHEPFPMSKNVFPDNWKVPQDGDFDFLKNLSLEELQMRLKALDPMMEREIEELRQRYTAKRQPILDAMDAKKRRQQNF
Protocol: as §1

HIPK3 = HIPK3 (Homo sapiens, UniProt Q9H422)
Protocol: as §1

MAPKAP-K3 = MAPKAP-K3 (Homo sapiens, UniProt Q16644)
Chain of MAPKAP-K3 (Q16644 whole entry): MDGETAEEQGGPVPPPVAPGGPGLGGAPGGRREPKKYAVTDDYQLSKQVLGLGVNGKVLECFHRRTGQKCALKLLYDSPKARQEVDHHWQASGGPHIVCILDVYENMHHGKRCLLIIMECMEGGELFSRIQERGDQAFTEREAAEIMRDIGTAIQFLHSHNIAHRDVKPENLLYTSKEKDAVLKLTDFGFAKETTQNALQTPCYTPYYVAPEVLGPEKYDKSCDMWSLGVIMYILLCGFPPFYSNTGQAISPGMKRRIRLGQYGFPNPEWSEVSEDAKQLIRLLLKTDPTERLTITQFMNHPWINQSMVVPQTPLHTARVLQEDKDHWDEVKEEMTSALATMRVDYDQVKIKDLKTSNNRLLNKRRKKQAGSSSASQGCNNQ
Protocol: as §1

Aurora B = Aurora B (Homo sapiens, UniProt Q96GD4)
Chain of Aurora B (Q96GD4 whole entry): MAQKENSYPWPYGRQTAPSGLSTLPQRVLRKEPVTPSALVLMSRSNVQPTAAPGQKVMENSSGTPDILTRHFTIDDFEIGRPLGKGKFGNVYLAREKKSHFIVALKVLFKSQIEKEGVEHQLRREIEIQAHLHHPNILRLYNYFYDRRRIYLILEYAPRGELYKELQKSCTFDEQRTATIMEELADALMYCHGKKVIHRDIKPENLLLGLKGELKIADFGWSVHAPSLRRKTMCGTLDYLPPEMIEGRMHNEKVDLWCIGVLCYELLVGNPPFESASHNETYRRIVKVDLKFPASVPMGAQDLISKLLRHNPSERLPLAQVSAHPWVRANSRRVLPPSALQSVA
Protocol: as §1

PDK1 = PDK1 (Homo sapiens, UniProt O15530)
Protocol: as §1

BRK = BRK (Homo sapiens, UniProt Q13882)
Protocol: as §1

MPSK1 = MPSK1 (Homo sapiens, UniProt O75716)
Protocol: as §1

PKCa = PKCa (Homo sapiens, UniProt P17252)
Protocol: as §1

MAP4K3 = MAP4K3 (Homo sapiens, UniProt Q8IVH8)
Protocol: as §1

PRAK = PRAK (Homo sapiens, UniProt Q8IW41)
Protocol: as §1

RIPK2 = RIPK2 (Homo sapiens, UniProt O43353)
Protocol: as §1

SGK1 = SGK1 (Homo sapiens, UniProt O00141)
Protocol: as §1

SYK = SYK (Homo sapiens, UniProt P43405)
Protocol: as §1

[1] = 1 μM, cross-referenced with screen data of ref 37, read-out: activity remaining after treatment

Structure (SMILES) | remaining activity at 0.1 µM (NEK6) [%] | remaining activity at 0.1 µM (Src) [%] | remaining activity at 0.1 µM (IR) [%] | remaining activity at 0.1 µM (CHK2) [%] | remaining activity at 0.1 µM (NUAK1) [%] | remaining activity at 0.1 µM (MLK1) [%] | remaining activity at 0.1 µM (SIK2) [%] | remaining activity at 0.1 µM (EPH-B2) [%] | remaining activity at 0.1 µM (TAK1) [%] | remaining activity at 0.1 µM (TTBK1) [%] | remaining activity at 0.1 µM (PINK) [%] | remaining activity at 0.1 µM (HIPK2) [%] | remaining activity at 0.1 µM (PDGFRA) [%] | remaining activity at 0.1 µM (p38g MAPK) [%] | remaining activity at 0.1 µM (DYRK2) [%] | remaining activity at 0.1 µM (MST2) [%] | remaining activity at 0.1 µM (HIPK3) [%] | remaining activity at 0.1 µM (MAPKAP-K3) [%] | remaining activity at 0.1 µM (Aurora B) [%] | remaining activity at 0.1 µM (PDK1) [%] | other results
CCc1ccccc1C(=O)Nc1n[nH]c2c(C)c(F)c(C3C(C#N)=C(C)N(C)C(C)=C3C#N)cc12 [BAY-3827, N-[5-(3,5-dicyano-1,2,6-trimethyl-4H-pyridin-4-yl)-6-fluoro-7-methyl-1H-indazol-3-yl]-2-ethylbenzamide] | 102 | 90 | 102 | 93 | 68 | 89 | 107 | 98 | 118 | 101 | 90 | 121 | 82 | 90 | 89 | 85 | 77 | 101 | ≤ 50 | 83 | remaining activity at 1 µM (IR; 1 μM, INSR, cross-referenced with screen data of ref 37, read-out: activity remaining after treatment): ≥ 99%; remaining activity at 1 µM (NUAK1; [1]): ≤ 50%; remaining activity at 1 µM (TAK1; [1]): ≥ 99%; remaining activity at 1 µM (TTBK1; [1]): ≥ 99%; inhibition at 0.1 µM (Aurora B): ~60%; remaining activity at 0.1 µM (BRK): 83%; remaining activity at 0.1 µM (MPSK1): 135%; remaining activity at 0.1 µM (PKCa): 90%; remaining activity at 0.1 µM (MAP4K3): 82%; remaining activity at 0.1 µM (PRAK): 101%; remaining activity at 0.1 µM (RIPK2): 102%; remaining activity at 0.1 µM (SGK1): 97%; remaining activity at 0.1 µM (SYK): 91%
CC1=C(C#N)C(c2ccc3c(c2)c(NC(=O)c2ccccc2C)nn3C)C(C#N)=C(C)N1 [BAY-974, N-[5-(3,5-dicyano-2,6-dimethyl-1,4-dihydropyridin-4-yl)-1-methylindazol-3-yl]-2-methylbenzamide] | 85 | 92 | 81 | 87 | 60 | 90 | 88 | 82 | 93 | 104 | 95 | 108 | 86 | 95 | 79 | 94 | 99 | 81 | 62 | 85 | remaining activity at 0.1 µM (BRK): 70%; remaining activity at 0.1 µM (MPSK1): 105%; remaining activity at 0.1 µM (PKCa): 110%; remaining activity at 0.1 µM (MAP4K3): 73%; remaining activity at 0.1 µM (PRAK): 107%; remaining activity at 0.1 µM (RIPK2): 108%; remaining activity at 0.1 µM (SGK1): 127%; inhibition at 0.1 µM (SYK): 55 to 90%
